Laboratory results from patent US20240327364A1, “THERAPEUTIC TARGETING OF GPR68 TO INDUCE FERROPTOSIS” (University Of Maryland, Baltimore, priority 2023, published 2024).

Legend:
[1] = molecular target: T1, ABL1(H396P)-nonphosphorylated (Homo sapiens, UniProt P00519, H396P); test: KinomeScan; assay type: binding; conditions: read-out: % Control
T1 construct: purchased DiscoveRx

C5aR = molecular target: T2, C5aR (Homo sapiens, UniProt P21730); test: GPCR Profiler; assay type: cell-based
T2 construct: host or cells: Chem-1 cells with promiscuous Gα15

[2] = molecular target: T3, ABL1(F317I)-nonphosphorylated (Homo sapiens, UniProt P00519, F317I); test: KinomeScan; assay type: binding; conditions: read-out: % Control
T3 construct: purchased DiscoveRx

ABL1-nonphosphorylated = molecular target: T4, ABL1-nonphosphorylated (Homo sapiens, UniProt P00519); test: KinomeScan; assay type: binding; conditions: read-out: % Control
T4 construct: purchased DiscoveRx

BRAF = molecular target: T5, BRAF (Homo sapiens, UniProt P15056); test: KinomeScan; assay type: binding; conditions: read-out: % Control
T5 construct: purchased DiscoveRx (Fremont, CA)

CDK11 = molecular target: T6, CDK11 (Homo sapiens, UniProt Q9BWU1); test: KinomeScan; assay type: binding; conditions: read-out: % Control
T6 construct: purchased DiscoveRx (KinomeScan service)

CAMK4 = molecular target: T7, CAMK4 (Homo sapiens, UniProt Q16566); test: KinomeScan; assay type: binding; conditions: read-out: % Control
T7 construct: purchased DiscoveRx (KinomeScan service)

GLP-1 = molecular target: T8, GLP-1 (Homo sapiens, UniProt P43220); test: GPCR Profiler; assay type: cell-based
T8 construct: host or cells: Chem-1 cells expressing Gα15

P2Y4 = molecular target: T9, P2Y4 (Homo sapiens, UniProt P51582); test: GPCR Profiler; assay type: cell-based
T9 construct: host or cells: Chem-1 cells with Gα15

PLK2 = molecular target: T10, PLK2 (Homo sapiens, UniProt Q9NYY3); test: KinomeScan; assay type: binding; conditions: read-out: % Control
T10 construct: purchased DiscoveRx (Fremont, CA)

PKN1 = molecular target: T11, PKN1 (Homo sapiens, UniProt Q16512); test: KinomeScan; assay type: binding; conditions: read-out: % Control
T11 construct: purchased DiscoveRx (Fremont, CA)

NDR1 = molecular target: T12, NDR1 (Homo sapiens, UniProt Q15208); test: KinomeScan; assay type: binding; conditions: read-out: % Control
T12 construct: purchased DiscoveRx

BMPR1B = molecular target: T13, BMPR1B (Homo sapiens, UniProt O00238); test: KinomeScan; assay type: binding; conditions: read-out: % Control
T13 construct: purchased DiscoveRx (Fremont, CA)

NLK = molecular target: T14, NLK (Homo sapiens, UniProt Q9UBE8); test: KinomeScan; assay type: binding; conditions: read-out: % Control
T14 construct: purchased DiscoveRx

CXCR6 = molecular target: T15, CXCR6 (Homo sapiens, UniProt O00574); test: GPCR Profiler; assay type: cell-based
T15 construct: host or cells: Chem-1 cells with Gα15

[3] = molecular target: T16, JAK2(JH1domain-catalytic) (Homo sapiens, UniProt O60674); test: KinomeScan; assay type: binding; conditions: read-out: % Control
T16 construct: JAK2(JH1domain-catalytic); purchased DiscoveRx (Fremont, CA)

p38-beta = molecular target: T17, p38-beta (Homo sapiens, UniProt Q15759); test: KinomeScan; assay type: binding; conditions: read-out: % Control
T17 construct: purchased DiscoveRx

CIT = CIT (Homo sapiens, UniProt O14578); test: KinomeScan; assay type: binding; conditions: read-out: % Control
D2 = molecular target: T18, D2 (Homo sapiens, UniProt P14416); test: GPCR Profiler; assay type: cell-based
T18 construct: host or cells: Chem-1 cells with Gα15

CX3CR1 = molecular target: T19, CX3CR1 (Homo sapiens, UniProt P49238); test: GPCR Profiler; assay type: cell-based
T19 construct: host or cells: Chem-1 cells with Gα15

MrgD = molecular target: T20, MrgD (Homo sapiens, UniProt Q8TDS7); test: GPCR Profiler; assay type: cell-based
T20 construct: host or cells: Chem-1 cells expressing Gα15

CAMK1 = molecular target: T21, CAMK1 (Homo sapiens, UniProt Q14012); test: KinomeScan; assay type: binding; conditions: read-out: % Control
T21 construct: purchased DiscoveRx (KinomeScan service)

RIPK4 = molecular target: T22, RIPK4 (Homo sapiens, UniProt P57078); test: KinomeScan; assay type: binding; conditions: read-out: % Control
T22 construct: purchased DiscoveRx (Fremont, CA)

EPHA2 = molecular target: T23, EPHA2 (Homo sapiens, UniProt P29317); test: KinomeScan; assay type: binding; conditions: read-out: % Control
T23 construct: purchased DiscoveRx (Fremont, CA)

EPHA1 = molecular target: T24, EPHA1 (Homo sapiens, UniProt P21709); test: KinomeScan; assay type: binding; conditions: read-out: % Control
T24 construct: purchased DiscoveRx (Fremont, CA)

P2Y11 = molecular target: T25, P2Y11 (Homo sapiens, UniProt Q96G91); test: GPCR Profiler; assay type: cell-based
T25 construct: host or cells: Chem-1 cells expressing Gα15

A2B = molecular target: T26, A2B (Homo sapiens, UniProt P29275); test: GPCR Profiler; assay type: cell-based
T26 construct: host or cells: Chem-1 cells with promiscuous Gα15

EP4 = molecular target: T27, EP4 (Homo sapiens, UniProt P35408); test: GPCR Profiler; assay type: cell-based
T27 construct: host or cells: Chem-1 cells expressing Gα15

PIK3CG = molecular target: T28, PIK3CG (Homo sapiens, UniProt P48736); test: KinomeScan; assay type: binding; conditions: read-out: % Control
T28 construct: purchased DiscoveRx (Fremont, CA)

CDK4-cyclinD3 = molecular target: T29, CDK4-cyclinD3 (Homo sapiens, UniProt P11802); test: KinomeScan; assay type: binding; conditions: read-out: % Control
T29 construct: purchased DiscoveRx (KinomeScan service)

DAPK2 = molecular target: T30, DAPK2 (Homo sapiens, UniProt Q9UIK4); test: KinomeScan; assay type: binding; conditions: read-out: % Control
T30 construct: purchased DiscoveRx (Fremont, CA), KinomeScan service

[4] = molecular target: T31, RSK2(Kin.Dom.1-N-terminal) (Homo sapiens, UniProt P51812); test: KinomeScan; assay type: binding; conditions: read-out: % Control
T31 construct: RSK2(Kin.Dom.1-N-terminal); purchased DiscoveRx (Fremont, CA)

PIK3CA(E542K) = molecular target: T32, PIK3CA(E542K) (Homo sapiens, UniProt P42336, E542K); test: KinomeScan; assay type: binding; conditions: read-out: % Control
T32 construct: purchased DiscoveRx (Fremont, CA)

MTOR = molecular target: T33, MTOR (Homo sapiens, UniProt P42345); test: KinomeScan; assay type: binding; conditions: read-out: % Control
T33 construct: purchased DiscoveRx

DDR1 = molecular target: T34, DDR1 (Homo sapiens, UniProt Q08345); test: KinomeScan; assay type: binding; conditions: read-out: % Control
T34 construct: purchased DiscoveRx (Fremont, CA), KinomeScan service

MELK = molecular target: T35, MELK (Homo sapiens, UniProt Q14680); test: KinomeScan; assay type: binding; conditions: read-out: % Control
T35 construct: purchased DiscoveRx (Fremont, CA)

T8 sequence (P43220 24-463): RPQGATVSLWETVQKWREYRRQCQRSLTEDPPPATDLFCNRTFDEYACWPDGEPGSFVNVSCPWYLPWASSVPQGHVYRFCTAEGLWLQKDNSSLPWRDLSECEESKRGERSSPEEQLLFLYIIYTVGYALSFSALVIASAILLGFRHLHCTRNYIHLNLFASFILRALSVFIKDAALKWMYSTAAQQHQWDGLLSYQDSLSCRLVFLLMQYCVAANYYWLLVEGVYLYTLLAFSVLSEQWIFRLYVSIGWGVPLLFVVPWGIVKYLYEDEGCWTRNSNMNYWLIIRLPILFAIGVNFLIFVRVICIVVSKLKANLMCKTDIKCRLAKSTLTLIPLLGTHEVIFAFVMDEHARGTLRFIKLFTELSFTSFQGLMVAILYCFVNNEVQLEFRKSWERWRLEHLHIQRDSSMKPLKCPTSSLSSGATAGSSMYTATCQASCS
T18 sequence (P14416 whole entry): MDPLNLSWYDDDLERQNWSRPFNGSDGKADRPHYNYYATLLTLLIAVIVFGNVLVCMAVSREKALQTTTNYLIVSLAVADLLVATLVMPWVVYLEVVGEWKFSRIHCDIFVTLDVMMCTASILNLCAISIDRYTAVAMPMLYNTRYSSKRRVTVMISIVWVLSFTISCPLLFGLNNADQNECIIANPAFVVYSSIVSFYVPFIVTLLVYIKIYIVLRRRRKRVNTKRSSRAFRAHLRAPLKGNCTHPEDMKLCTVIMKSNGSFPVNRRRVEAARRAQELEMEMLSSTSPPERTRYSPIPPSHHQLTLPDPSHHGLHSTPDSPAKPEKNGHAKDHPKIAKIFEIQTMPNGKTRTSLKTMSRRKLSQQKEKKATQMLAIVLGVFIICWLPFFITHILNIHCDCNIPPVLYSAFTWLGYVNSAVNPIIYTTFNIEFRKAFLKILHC
T25 sequence (Q96G91 whole entry, species assumed): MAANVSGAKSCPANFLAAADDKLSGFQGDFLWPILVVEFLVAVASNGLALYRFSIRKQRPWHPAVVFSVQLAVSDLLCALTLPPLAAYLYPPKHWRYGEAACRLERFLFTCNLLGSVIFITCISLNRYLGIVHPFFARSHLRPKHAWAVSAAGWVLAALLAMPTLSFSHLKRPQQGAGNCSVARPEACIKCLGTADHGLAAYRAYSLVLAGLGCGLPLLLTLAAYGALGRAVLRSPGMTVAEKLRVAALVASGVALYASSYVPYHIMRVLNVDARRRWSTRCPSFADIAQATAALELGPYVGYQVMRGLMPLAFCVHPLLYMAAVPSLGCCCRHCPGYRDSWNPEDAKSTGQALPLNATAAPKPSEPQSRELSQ
T26 sequence (P29275 whole entry): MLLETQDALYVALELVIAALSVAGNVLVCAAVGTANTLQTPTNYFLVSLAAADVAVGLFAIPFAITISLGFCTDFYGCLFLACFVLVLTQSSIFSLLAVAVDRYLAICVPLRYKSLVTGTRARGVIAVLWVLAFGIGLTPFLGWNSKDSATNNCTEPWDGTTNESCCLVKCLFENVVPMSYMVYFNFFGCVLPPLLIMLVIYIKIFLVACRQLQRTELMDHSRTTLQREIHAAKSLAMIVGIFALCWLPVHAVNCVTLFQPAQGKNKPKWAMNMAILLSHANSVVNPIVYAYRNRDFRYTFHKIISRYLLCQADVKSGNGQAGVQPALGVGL
T20 sequence (Q8TDS7 whole entry, species assumed): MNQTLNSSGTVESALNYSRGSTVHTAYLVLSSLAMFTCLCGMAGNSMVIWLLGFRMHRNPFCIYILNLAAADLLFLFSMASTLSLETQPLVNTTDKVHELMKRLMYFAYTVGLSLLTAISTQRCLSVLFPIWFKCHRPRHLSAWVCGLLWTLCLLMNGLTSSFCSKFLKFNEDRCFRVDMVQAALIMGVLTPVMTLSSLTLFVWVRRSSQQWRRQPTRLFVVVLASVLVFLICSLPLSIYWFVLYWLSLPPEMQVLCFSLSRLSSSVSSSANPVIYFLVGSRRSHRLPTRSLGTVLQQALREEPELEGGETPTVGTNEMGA
T9 sequence (P51582 whole entry, species assumed): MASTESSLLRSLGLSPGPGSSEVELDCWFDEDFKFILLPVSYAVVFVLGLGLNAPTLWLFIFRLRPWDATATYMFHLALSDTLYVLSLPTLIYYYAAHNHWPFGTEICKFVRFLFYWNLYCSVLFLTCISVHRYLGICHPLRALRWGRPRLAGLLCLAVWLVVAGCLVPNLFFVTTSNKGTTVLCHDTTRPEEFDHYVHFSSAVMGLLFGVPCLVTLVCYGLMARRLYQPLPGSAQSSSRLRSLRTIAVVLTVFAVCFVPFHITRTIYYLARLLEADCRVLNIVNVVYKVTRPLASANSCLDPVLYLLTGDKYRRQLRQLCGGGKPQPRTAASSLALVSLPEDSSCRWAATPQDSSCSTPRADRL
T2 sequence (P21730 whole entry, species assumed): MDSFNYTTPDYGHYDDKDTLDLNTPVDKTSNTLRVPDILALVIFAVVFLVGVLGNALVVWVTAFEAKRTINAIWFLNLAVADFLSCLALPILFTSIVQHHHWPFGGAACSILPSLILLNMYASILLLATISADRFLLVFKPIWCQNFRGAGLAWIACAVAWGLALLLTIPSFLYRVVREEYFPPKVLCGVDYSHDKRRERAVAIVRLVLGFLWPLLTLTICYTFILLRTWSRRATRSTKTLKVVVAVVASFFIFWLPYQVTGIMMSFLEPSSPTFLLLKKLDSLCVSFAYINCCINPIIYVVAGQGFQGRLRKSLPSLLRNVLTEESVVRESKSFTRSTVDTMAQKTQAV
T19 sequence (P49238 whole entry, species assumed): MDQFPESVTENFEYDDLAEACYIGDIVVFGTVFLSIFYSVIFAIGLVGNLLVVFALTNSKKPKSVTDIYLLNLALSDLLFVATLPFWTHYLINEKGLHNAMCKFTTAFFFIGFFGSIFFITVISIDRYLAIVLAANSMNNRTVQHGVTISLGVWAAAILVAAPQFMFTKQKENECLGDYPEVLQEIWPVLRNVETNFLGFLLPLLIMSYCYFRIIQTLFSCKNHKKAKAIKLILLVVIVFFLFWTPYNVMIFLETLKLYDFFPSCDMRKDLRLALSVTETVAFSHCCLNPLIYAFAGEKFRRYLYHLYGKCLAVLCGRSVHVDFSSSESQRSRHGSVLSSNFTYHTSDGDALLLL
T15 sequence (O00574 whole entry, species assumed): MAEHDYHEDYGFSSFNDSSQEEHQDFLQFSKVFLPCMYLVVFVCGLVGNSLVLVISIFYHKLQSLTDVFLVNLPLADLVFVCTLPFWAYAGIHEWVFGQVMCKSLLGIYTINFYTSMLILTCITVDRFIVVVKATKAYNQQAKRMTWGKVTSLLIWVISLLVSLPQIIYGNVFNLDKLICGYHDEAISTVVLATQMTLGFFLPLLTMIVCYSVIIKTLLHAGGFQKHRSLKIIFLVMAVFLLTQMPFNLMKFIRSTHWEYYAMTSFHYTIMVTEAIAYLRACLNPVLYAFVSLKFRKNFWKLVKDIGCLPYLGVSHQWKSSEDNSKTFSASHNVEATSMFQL
T27 sequence (P35408 whole entry): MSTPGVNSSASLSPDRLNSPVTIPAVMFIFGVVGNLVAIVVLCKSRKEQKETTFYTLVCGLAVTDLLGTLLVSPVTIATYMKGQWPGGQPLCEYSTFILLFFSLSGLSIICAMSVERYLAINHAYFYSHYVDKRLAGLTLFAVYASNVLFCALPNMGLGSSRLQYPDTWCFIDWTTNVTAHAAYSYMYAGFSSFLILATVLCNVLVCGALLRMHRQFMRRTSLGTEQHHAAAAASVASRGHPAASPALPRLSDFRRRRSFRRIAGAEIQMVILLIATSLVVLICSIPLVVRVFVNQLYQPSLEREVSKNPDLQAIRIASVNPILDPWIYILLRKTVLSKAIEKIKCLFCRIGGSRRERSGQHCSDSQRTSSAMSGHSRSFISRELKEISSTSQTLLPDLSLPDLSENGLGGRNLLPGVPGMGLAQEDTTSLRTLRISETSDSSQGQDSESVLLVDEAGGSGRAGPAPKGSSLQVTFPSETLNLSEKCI
T31 sequence (P51812 68-327 limits assumed): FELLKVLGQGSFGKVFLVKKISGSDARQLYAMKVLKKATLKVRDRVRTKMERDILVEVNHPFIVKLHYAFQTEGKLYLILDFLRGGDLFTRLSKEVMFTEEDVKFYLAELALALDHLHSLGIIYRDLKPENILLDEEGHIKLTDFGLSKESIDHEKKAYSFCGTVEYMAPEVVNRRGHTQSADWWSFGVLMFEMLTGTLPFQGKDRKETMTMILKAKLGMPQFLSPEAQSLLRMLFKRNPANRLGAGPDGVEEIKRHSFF
T17 sequence (Q15759 whole entry): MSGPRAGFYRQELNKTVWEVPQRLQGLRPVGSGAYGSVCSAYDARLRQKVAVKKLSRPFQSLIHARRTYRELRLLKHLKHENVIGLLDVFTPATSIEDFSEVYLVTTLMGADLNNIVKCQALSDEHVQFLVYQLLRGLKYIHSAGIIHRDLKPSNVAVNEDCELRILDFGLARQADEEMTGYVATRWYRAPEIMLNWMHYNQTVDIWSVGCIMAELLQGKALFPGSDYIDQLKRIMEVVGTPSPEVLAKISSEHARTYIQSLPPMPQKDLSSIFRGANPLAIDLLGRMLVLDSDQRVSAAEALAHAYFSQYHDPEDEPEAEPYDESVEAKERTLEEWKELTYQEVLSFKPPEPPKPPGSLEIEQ
T30 sequence (Q9UIK4 whole entry): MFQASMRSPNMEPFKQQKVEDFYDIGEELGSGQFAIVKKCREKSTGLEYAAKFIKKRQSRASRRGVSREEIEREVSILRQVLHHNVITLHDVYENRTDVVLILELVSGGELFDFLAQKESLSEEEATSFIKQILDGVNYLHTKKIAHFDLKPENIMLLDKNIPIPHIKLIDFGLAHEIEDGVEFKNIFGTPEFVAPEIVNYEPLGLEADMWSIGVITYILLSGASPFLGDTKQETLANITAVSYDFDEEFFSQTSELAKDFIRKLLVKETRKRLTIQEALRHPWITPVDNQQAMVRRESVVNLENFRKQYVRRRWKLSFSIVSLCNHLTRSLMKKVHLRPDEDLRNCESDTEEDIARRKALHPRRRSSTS

**Q.** For `CCc1ccc2c(c1)C1(NN=C(c3cccc4ccccc34)S1)C(=O)N2` (stereo not shown) [OGM1, 5-ethyl-5′-naphthalen-1-ylspiro[1H-indole-3,2′-3H-1,3,4-thiadiazole]-2-one], which remaining binding at 10 µM [1] is on record?
**A.** 88%

**Q.** What about the Antagonism (C5aR; 10 uM) of the same compound?
**A.** −0.7

**Q.** What about the Agonism (C5aR; 12.5 uM) of the same compound?
**A.** 3.1

**Q.** What about the remaining binding at 10 µM [2] of the same compound?
**A.** 100%

**Q.** And the remaining binding at 10 µM (ABL1-nonphosphorylated)?
**A.** 100%

**Q.** And the remaining binding at 10 µM (BRAF)?
**A.** 96%

**Q.** And the remaining binding at 10 µM (CDK11)?
**A.** 100%

**Q.** And the remaining binding at 10 µM (CAMK4)?
**A.** 100%

**Q.** What about the Antagonism (GLP-1; 10 uM) of the same compound?
**A.** 2.1

**Q.** And the Agonism (GLP-1; 12.5 uM)?
**A.** −0.3

**Q.** And the Antagonism (P2Y4; 10 uM)?
**A.** 5.4

**Q.** And the Agonism (P2Y4; 12.5 uM)?
**A.** −0.8

**Q.** What about the remaining binding at 10 µM (PLK2) of the same compound?
**A.** 100%

**Q.** And the remaining binding at 10 µM (PKN1)?
**A.** 100%

**Q.** What about the remaining binding at 10 µM (NDR1) of the same compound?
**A.** 98%

**Q.** And the remaining binding at 10 µM (BMPR1B)?
**A.** 81%

**Q.** And the remaining binding at 10 µM (NLK)?
**A.** 100%

**Q.** What about the Antagonism (CXCR6; 10 uM) of the same compound?
**A.** −14

**Q.** And the Agonism (CXCR6; 12.5 uM)?
**A.** 0

**Q.** And the remaining binding at 10 µM [3]?
**A.** 100%

**Q.** And the remaining binding at 10 µM (p38-beta)?
**A.** 100%

**Q.** And the remaining binding at 10 µM (CIT)?
**A.** 94%

**Q.** And the Antagonism (D2; 10 uM)?
**A.** 11.4

**Q.** And the Agonism (D2; 12.5 uM)?
**A.** −0.5

**Q.** What about the Antagonism (CX3CR1; 10 uM) of the same compound?
**A.** −12.1

**Q.** And the Agonism (CX3CR1; 12.5 uM)?
**A.** 0.3

**Q.** And the Antagonism (MrgD; 10 uM)?
**A.** −2.2

**Q.** What about the Agonism (MrgD; 12.5 uM) of the same compound?
**A.** −0.1

**Q.** And the remaining binding at 10 µM (CAMK1)?
**A.** 50%

**Q.** What about the remaining binding at 10 µM (RIPK4) of the same compound?
**A.** 81%

**Q.** And the remaining binding at 10 µM (EPHA2)?
**A.** 100%

**Q.** And the remaining binding at 10 µM (EPHA1)?
**A.** 92%

**Q.** And the Antagonism (P2Y11; 10 uM)?
**A.** −8.2

**Q.** And the Agonism (P2Y11; 12.5 uM)?
**A.** −0.1

**Q.** And the Antagonism (A2B; 10 uM)?
**A.** −12.8

**Q.** What about the Agonism (A2B; 12.5 uM) of the same compound?
**A.** 4.4

**Q.** And the Antagonism (EP4; 10 uM)?
**A.** −17

**Q.** What about the Agonism (EP4; 12.5 uM) of the same compound?
**A.** 0.9

**Q.** What about the remaining binding at 10 µM (PIK3CG) of the same compound?
**A.** 100%

**Q.** What about the remaining binding at 10 µM (CDK4-cyclinD3) of the same compound?
**A.** 76%

**Q.** And the remaining binding at 10 µM (DAPK2)?
**A.** 89%

**Q.** And the remaining binding at 10 µM [4]?
**A.** 95%

**Q.** And the remaining binding at 10 µM (PIK3CA(E542K))?
**A.** 73%

**Q.** And the remaining binding at 10 µM (MTOR)?
**A.** 86%

**Q.** What about the remaining binding at 10 µM (DDR1) of the same compound?
**A.** 100%

**Q.** And the remaining binding at 10 µM (MELK)?
**A.** 100%
